Assay results from ChEMBL document CHEMBL1201862, “PubChem BioAssay data set” (2004).
Activity calls are given as the source filed them.

molecular target: T1, Protein RecA (Mycobacterium tuberculosis, UniProt P9WHJ3); assay: Fluorescence Cell-Free Homogeneous Dose Retest to Identify Inhibitors of RecA-Intein Splicing Activity. [Related pubchem assays (depositor defined):AID2097, AID2223, AID489010, AID492950]; type: functional; conditions: not given
T1 sequence (P9WHJ3 whole entry): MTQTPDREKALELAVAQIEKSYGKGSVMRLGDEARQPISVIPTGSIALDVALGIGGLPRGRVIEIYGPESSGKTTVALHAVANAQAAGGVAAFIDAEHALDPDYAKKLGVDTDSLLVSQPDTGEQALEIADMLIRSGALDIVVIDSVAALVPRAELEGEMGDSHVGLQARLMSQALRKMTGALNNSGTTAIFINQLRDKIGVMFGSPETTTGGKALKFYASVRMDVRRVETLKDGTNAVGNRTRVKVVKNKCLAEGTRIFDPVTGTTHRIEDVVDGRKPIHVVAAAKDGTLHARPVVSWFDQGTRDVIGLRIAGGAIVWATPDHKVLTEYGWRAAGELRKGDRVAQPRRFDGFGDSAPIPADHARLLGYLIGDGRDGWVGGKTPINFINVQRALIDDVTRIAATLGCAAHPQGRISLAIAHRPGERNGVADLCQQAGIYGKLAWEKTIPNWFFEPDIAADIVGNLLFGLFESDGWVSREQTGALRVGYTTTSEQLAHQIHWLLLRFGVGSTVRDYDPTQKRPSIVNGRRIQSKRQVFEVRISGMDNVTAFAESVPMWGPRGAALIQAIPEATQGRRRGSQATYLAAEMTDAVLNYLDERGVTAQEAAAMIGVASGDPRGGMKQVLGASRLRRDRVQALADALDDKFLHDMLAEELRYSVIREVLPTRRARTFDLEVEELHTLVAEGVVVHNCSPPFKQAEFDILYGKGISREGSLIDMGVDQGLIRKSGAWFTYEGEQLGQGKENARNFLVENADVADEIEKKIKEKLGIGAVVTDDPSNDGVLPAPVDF

SMILES	EC50
CCOc1cc(/C=C2/SC(=S)N(Cc3ccccc3)C2=O)ccc1O	3.96 µM (active)
Cc1cc(C(=O)c2ccc(Cl)cc2)c(NC(=O)CCl)s1	0.481 µM (active)
CC1=NN(c2ccccc2)C(=O)/C1=C\c1cn(C)c2ccccc12	6.5 µM (active)

tested on: not listed separately; assay: cells; type: functional; conditions: not given

SMILES	IC50
COC(=O)COc1ccc(-c2ccccc2)cc1C=O	12.1 µM (active)
COc1ccc(NC(=O)c2cc3ccccc3o2)cc1	> 50 µM (active)
c1nc2n(n1)C1=C(CCCC1)C1(CCCCC1)N2	10.1 µM (active)
O=C(OCn1nnc2ccccc2c1=O)c1ccc(Br)o1	18.6 µM (active)

molecular target: T2, Replicative DNA helicase DnaB (Mycobacterium tuberculosis, UniProt P9WMR3); assay: DnaB intein splicing inhibitors, dose response, biochemical, cell-free fluorescence (AID 449749); type: functional; conditions: not given
T2 sequence (P9WMR3 whole entry): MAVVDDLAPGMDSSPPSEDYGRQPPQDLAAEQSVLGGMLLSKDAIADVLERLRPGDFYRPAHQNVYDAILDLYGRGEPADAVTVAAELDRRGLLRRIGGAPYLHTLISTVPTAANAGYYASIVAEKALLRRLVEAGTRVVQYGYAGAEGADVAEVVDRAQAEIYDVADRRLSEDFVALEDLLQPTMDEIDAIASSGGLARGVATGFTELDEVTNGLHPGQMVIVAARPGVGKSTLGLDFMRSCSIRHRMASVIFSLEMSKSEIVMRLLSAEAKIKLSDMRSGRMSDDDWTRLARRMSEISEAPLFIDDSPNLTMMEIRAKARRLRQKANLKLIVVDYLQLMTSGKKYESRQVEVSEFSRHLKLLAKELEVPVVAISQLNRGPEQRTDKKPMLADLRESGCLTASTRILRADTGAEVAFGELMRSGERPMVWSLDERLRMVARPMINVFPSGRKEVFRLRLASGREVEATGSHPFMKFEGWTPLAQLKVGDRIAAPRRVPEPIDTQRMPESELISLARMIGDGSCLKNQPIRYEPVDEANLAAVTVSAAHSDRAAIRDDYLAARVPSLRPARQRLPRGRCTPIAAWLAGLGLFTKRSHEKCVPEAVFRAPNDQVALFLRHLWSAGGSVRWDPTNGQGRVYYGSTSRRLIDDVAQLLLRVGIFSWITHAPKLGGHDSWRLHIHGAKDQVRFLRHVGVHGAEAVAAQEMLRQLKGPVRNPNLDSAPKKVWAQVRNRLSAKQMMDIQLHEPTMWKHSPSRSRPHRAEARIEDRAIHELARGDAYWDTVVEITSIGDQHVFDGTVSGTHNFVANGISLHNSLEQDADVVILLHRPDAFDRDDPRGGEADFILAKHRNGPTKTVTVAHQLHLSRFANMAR

SMILES	AC50
CCOc1cc(/C=C2/SC(=S)N(Cc3ccccc3)C2=O)ccc1O	38.9 µM (active)
Cc1cc(C(=O)c2ccc(Cl)cc2)c(NC(=O)CCl)s1	24.4 µM (active)
CC1=NN(c2ccccc2)C(=O)/C1=C\c1cn(C)c2ccccc12	17.7 µM (active)

tested on: not listed separately; assay: microbe, parasite or virus in culture; type: functional; conditions: Mycobacterium tuberculosis

SMILES	CC50
CC1CCN(C(=S)NC(=O)c2cccs2)CC1	> 40 µM (active)
NCCCn1c(C(=O)c2ccc(Cl)cc2)c2ccc([N+](=O)[O-])cc2[n+]1[O-]	35.4 µM (active)
Cc1cccc(C)c1OCC(=O)Nc1cccc(-c2nnc(-c3ccccc3)o2)c1	34.9 µM (active)
O=C(CCCCCNc1nc(S)nc2ccccc12)N1CCN(c2ccccn2)CC1	> 40 µM (active)

tested on: not listed separately; assay: Luminescence Cell-Based Dose Retest to Confirm Inhibitors of Cancer Stem Cells. [Related pubchem assays (depositor defined):AID2717, AID2721]; type: functional; conditions: Homo sapiens

SMILES	AC50
CCOc1cc(/C=C2/SC(=S)N(Cc3ccccc3)C2=O)ccc1O	1.42 µM (active)
COC(=O)c1cc(NC(=O)c2cc(-c3ccccc3Cl)oc2C(F)(F)F)ccc1N1CCOCC1	4.57 µM (active)
C[C@@H]1O[C@@H](O[C@H]2C[C@@H](O)[C@]3(CO)[C@H]4[C@H](O)C[C@]5(C)[C@@H](C6=CC(=O)OC6)CC[C@]5(O)[C@@H]4CC[C@]3(O)C2)[C@H](O)[C@H](O)[C@H]1O	< 0.16 µM (active)
COc1ccc(-c2cccc([C@H]3[C@@H]4C=CCC[C@@]4(C)C(=O)N3Cc3ccccc3)c2)cc1	5.36 µM (active)
CC(=O)Nc1ccc(SCC(=O)c2cc(C)n(-c3ccccc3)c2C)cc1	6.41 µM (active)
COc1ccc(C(=O)c2ccc(OC)cc2OC)cc1	13.6 µM (active)
CC(C)c1ccc(NC(=O)C(c2ccccc2)N(C)C(=O)CCc2c[nH]c3ccccc23)cc1 (configuration not stated)	4 µM (active)
Cc1ccn2c(NC3CCCCC3)c(-c3cccc(SC4CCCCC4)c3)nc2c1	2.65 µM (active)
